In patent US20150224164A1, “TREATMENT OF AUTISM SPECTRUM DISORDERS USING GLYCYL-L-2-METHYLPROLYL-L-GLUMATIC ACID” (Neuren Pharmaceuticals Limited, priority 2013, published 2015):
Where a SMILES comes first, the peptide text is derived from it.

Key:
MeCP2 deficient mice = system: MeCP2 deficient mice
Method: We treated hemizygous MeCP2(1lox) male mice with 20 mg/kg/day of G-2-MePE or saline, (0.01% BSA, n=15 per group in survival experiment and n=20 in the LTP experiment). The treatments were administered intraperitoneally from 4 weeks after birth. For the survival experiments the treatment was maintained through the course of the experiment. For the LTP experiment the mice were treated until week 9 when they were used for slice preparation.
MeCP2 deficient mutant mice develop RTT symptoms at about 4-6 weeks of age and die between 10-12 weeks (Chen et al., 2001. Nat Genet 27: 327-331). We compared the survival of the wild type controls and the MeCP2 deficient animals in vehicle- and G-2-MePE-treated groups. Survival was measured weekly from start of treatment (4 weeks) and used to produce Kaplan-Meier survival curves to show the proportion of mice that survived (y axis) at each weekly interval (x axis) (see FIG. 22).

[1] = system: neurons in the CA3 region of the hippocampus; assay: Neuron soma size in hippocampus CA3 (Example 10); type: in vivo, mouse
Method: We also measure the effect of G-2-MePE treatment on neuron soma size in the hippocampus. Mice are treated with G-2-MePE as described above for locomotor activity.

central nervous system = conditions: after oral administration; cited from earlier work
RTT iPSC-derived neurons = assay: In vitro human model of Rett Syndrome, iPSC-derived neurons (Example 14); type: cell-based; conditions: 1 nM-10 μM for 1 week
Method: RTT fibroblasts (carrying 4 distinct MeCP2 mutations) and control fibroblasts are generated from explants of dermal biopsies. The shRNA against target MeCP2 gene is cloned into the LentiLox3.7 lentivirus vector (as described in Marchetto et al.). The fibroblasts are infected with retroviral reprogramming vectors (Sox2, Oct4, c-Myc and Klf4). Two days after infection, fibroblasts are plated on mitotically inactivated mouse embryonic fibroblasts with hESC medium. After 2 weeks, iPSC colonies that emerge from the background of fibroblasts are manually picked and transferred to feeder-free conditions on matrigel-coated dishes (BD) using embryonic stem cell culture media mTeSR™ (Stem Cell Technologies) and passaged manually. Gene expression profiles of the generated clones are measured using human genome Affymetrix Gene Chip™ arrays to confirm that reprogramming is successful. […]
Cells are fixed in 4% paraformaldehyde and permeabilized with 0.5% Triton-X100 in PBS. […] Fluorescent signals are detected using a Zeiss inverted microscope and images are processed with Photoshop CS3. The following primary antibodies are used: TRA-1-60, TRA-1-81 (1:100), Nanog and Lin28 (1:500), human Nestin (1:100), Tuj-1 (1:500), Map2 (1:100); meCP2 (1:1000; VGLUT1 (1:200), Psd95 (1:500), GFP (1:200), Sox1 (1:250), Mushasil (1:200) and me3H3K27 (1:500). Cell soma size is measured using suitable software (e.g. ImageJ) after identification of neurons using the Syn::EGFP™. The morphologies of neuronal dendrites and spines are studied from an individual projection of z-stacks optical sections and scanned at 0.5 um increments that correlate with the resolution valued at z-plane. Each optical section is the result of 3 scans at 500 lps followed by Kalman filtering. For synapse quantification, images are taken by a z-step of 1 um using Biorad radiance 2100™ confocal microscope. Synapse quantification is done blinded to genotype. Only VGLUT1 puncta along Map2-positive processes are counted. […]

MeCP2 knockout mice = assay: Nocturnal locomotor activity (Example 10); type: in vivo, mouse; conditions: after 6 weeks; 20 mg/kg i.p. daily
Method: Spontaneous motor activity is measured by using an infrared beam-activated movement-monitoring chamber (Opto-Varimax-MiniA; Columbus Instruments, Columbus, Ohio). For each experiment, a mouse is placed in the chamber at least 3 h before recordings started. Movement is monitored during the normal 12-h dark cycle (7 p.m. to 7 a.m.). One dark cycle per animal per time point is collected.

C[C@@]1(C(=O)N[C@@H](CCC(=O)O)C(=O)O)CCCN1C(=O)CN [Example G-2-MePE, Glycyl-L-2-methylprolyl-L-glutamic acid] (HELM PEPTIDE1{G.[C[C@@]1(C(=O)[*:2])CCCN1[*:1]].E}$$$$V2.0)
time at which 50% of the animals survived (MeCP2 deficient mice; 20 mg/kg/day i.p. from 4 weeks, saline about 11 weeks): about 15 weeks | time to 50 percent death, re-examination with control group re-run (MeCP2 deficient mice; 20 mg/kg/day i.p., controls 13.5 weeks): 16 weeks | time to 50 percent death, data initially presented (MeCP2 deficient mice; 20 mg/kg/day i.p., untreated 11 weeks): 16 weeks | safety in mecp2 mice (MeCP2 deficient mice; mouse, in vivo): No safety concerns | average soma size ([1]; KO animals): increases average soma size | soma size ([1]; wild type animals): little or no effect | activity in the central nervous system (central nervous system): active in the central nervous system | frequency and amplitude of spontaneous post-synaptic currents, frequency of calcium transients (RTT iPSC-derived neurons): normalizes | glutamatergic synapse numbers (RTT iPSC-derived neurons): significant increase | VGLUT1 puncta number (RTT iPSC-derived neurons; all concentrations): increase VGLUT1 puncta number | nocturnal locomotor activity levels (MeCP2 knockout mice): elevates these levels
